# Experiment: sensory evaluation of saltiness intensity by expert panel, 1.0% sodium chloride solution
# Assay type: in vivo
# Method: Evaluation samples 1 to 10 were prepared by adding a cyclotene diluted solution (using propylene glycol as a solvent) to 1.0% sodium chloride solution to adjust the concentration of cyclotene in the sodium chloride solution as shown in the following Table 1. The amount of propylene glycol added was adjusted to be the same in all evaluation samples.
# A panel of four experts conducted a sensory evaluation of the saltiness intensity of evaluation samples 1 to 10. The sensory evaluation was performed by the four experts, who scored each evaluation sample in 0.1 point increments based on the following evaluation scale using 1.0% sodium chloride solution, 1.025% sodium chloride solution and 1.05% sodium chloride solution as reference samples, and calculated the average score of the four experts. The four experts were previously trained to have a common understanding of the following saltiness intensity evaluation scale, such as the amount of saltiness intensity change required to cause a score change of 0.1 point.
# • 0.0 points: saltiness intensity equivalent to 1.0% sodium chloride solution • 5.0 points: saltiness intensity equivalent to 1.025% sodium chloride solution • 10.0 points: saltiness intensity equivalent to 1.05% sodium chloride solution
structure (smiles),measurement,value
CC1=C(O)C(=O)CC1 [cyclotene],saltiness enhancement (in words),has a saltiness enhancing action

# From US20250024872A1, “SALTY TASTE ENHANCER” (AJINOMOTO CO., INC., priority 2022, published 2025)
